Measurements as given in PubChem BioAssay (NCI).
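96-well plates; 48 h exposure; 5 concentrations. Endpoints by linear interpolation between flanking doses. Not reached: highest tested concentration assigned. GI50 marks 50% less growth. TGI denotes the concentration required for complete inhibition of growth.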

Experiments:
Assay in all cases: DTP human tumour cell line panel, 48 h
DLD-1 colon = test system: DLD-1 colon
EKVX NSCLC = test system: EKVX NSCLC
OVCAR-4 ovarian = test system: OVCAR-4 ovarian
SK-MEL-5 melanoma = test system: SK-MEL-5 melanoma
SNB-75 CNS = test system: SNB-75 CNS
SW-620 colon = test system: SW-620 colon
UO-31 renal = test system: UO-31 renal
PC-3 prostate = test system: PC-3 prostate
T-47D breast = test system: T-47D breast
DMS 114 small cell lung = test system: DMS 114 small cell lung

With N#CCC(=O)Nc1cccc(C(F)(F)F)c1 as the compound, how does the TGI (DLD-1 colon) read?
The TGI was over 100 µM.

And the TGI (EKVX NSCLC)?
The TGI was over 100 µM.

And the TGI (OVCAR-4 ovarian)?
Its TGI is over 100 µM.

And the TGI (SK-MEL-5 melanoma)?
The TGI was over 100 µM.

And the TGI (SNB-75 CNS)?
Its TGI is over 100 µM.

What about the TGI (SW-620 colon) of the same compound?
Its TGI is over 100 µM.

And the TGI (UO-31 renal)?
The TGI was over 100 µM.

Which results are given for COc1ccc2c(c1)/C(=C\c1c(C)nc3sc(C)cn13)C(=O)N2C?
GI50 (EKVX NSCLC): 16.7 µM; TGI (EKVX NSCLC): 73.8 µM; GI50 (OVCAR-4 ovarian): 26.4 µM; TGI (OVCAR-4 ovarian): > 100 µM; GI50 (PC-3 prostate): 6.9 µM; TGI (PC-3 prostate): 62.4 µM; GI50 (SK-MEL-5 melanoma): 2.15 µM; TGI (SK-MEL-5 melanoma): 5.49 µM; GI50 (SNB-75 CNS): 5.88 µM; TGI (SNB-75 CNS): 51.2 µM; GI50 (SW-620 colon): 3.25 µM; TGI (SW-620 colon): 18 µM; GI50 (T-47D breast): 1.78 µM; TGI (T-47D breast): 5.35 µM; GI50 (UO-31 renal): 10 µM; TGI (UO-31 renal): > 100 µM

For COc1ccc2cc(C(=O)/C=C/c3cc(OC)c(OC)c(OC)c3)ccc2c1, which GI50 (EKVX NSCLC) is on record?
The GI50 was 4.05 µM.

And the TGI (EKVX NSCLC)?
Its TGI is 29.5 µM.

And the GI50 (OVCAR-4 ovarian)?
The GI50 was 2.82 µM.

And the TGI (OVCAR-4 ovarian)?
Its TGI is over 50 µM.

What about the GI50 (PC-3 prostate) of the same compound?
Its GI50 is 9.84 µM.

And the TGI (PC-3 prostate)?
The TGI was over 50 µM.

What about the GI50 (SK-MEL-5 melanoma) of the same compound?
The GI50 was 0.0737 µM.

What about the TGI (SK-MEL-5 melanoma) of the same compound?
Its TGI is 1.01 µM.

And the GI50 (SNB-75 CNS)?
The GI50 was 11.8 µM.

What about the TGI (SNB-75 CNS) of the same compound?
Its TGI is 39.3 µM.

And the GI50 (SW-620 colon)?
The GI50 was 1.51 µM.

What about the TGI (SW-620 colon) of the same compound?
The TGI was 6.91 µM.

And the GI50 (T-47D breast)?
The GI50 was over 50 µM.

What about the TGI (T-47D breast) of the same compound?
The TGI was over 50 µM.

And the GI50 (UO-31 renal)?
The GI50 was 7.44 µM.

What about the TGI (UO-31 renal) of the same compound?
The TGI was 15.5 µM.

CCOc1cc2ncc(C#N)c(Nc3ccc(OCc4cccc(F)c4)c(Cl)c3)c2cc1NC(=O)CC1CCSS1 (centres undefined) was tested. Which GI50 (EKVX NSCLC) did it give?
Its GI50 is 0.74 µM.

And the TGI (EKVX NSCLC)?
Its TGI is over 14.3 µM.

What about the GI50 (OVCAR-4 ovarian) of the same compound?
Its GI50 is 0.539 µM.

What about the TGI (OVCAR-4 ovarian) of the same compound?
The TGI was 1.36 µM.

And the GI50 (PC-3 prostate)?
Its GI50 is 0.801 µM.

And the TGI (PC-3 prostate)?
Its TGI is 5.91 µM.

And the GI50 (SK-MEL-5 melanoma)?
The GI50 was 2.39 µM.

And the TGI (SK-MEL-5 melanoma)?
The TGI was over 25 µM.

What about the GI50 (SNB-75 CNS) of the same compound?
Its GI50 is over 25 µM.

And the TGI (SNB-75 CNS)?
The TGI was over 25 µM.

And the GI50 (SW-620 colon)?
Its GI50 is over 25 µM.

And the TGI (SW-620 colon)?
The TGI was over 25 µM.

What about the GI50 (T-47D breast) of the same compound?
The GI50 was 0.978 µM.

And the TGI (T-47D breast)?
Its TGI is over 25 µM.

What about the GI50 (UO-31 renal) of the same compound?
Its GI50 is 1.04 µM.

And the TGI (UO-31 renal)?
The TGI was over 25 µM.

How did the GI50 (EKVX NSCLC) turn out when N=C1C(c2nc(-c3ccc(Br)cc3)cs2)=C(O)CN1Cc1cccnc1 was run?
The GI50 was 56.6 µM.

What about the TGI (EKVX NSCLC) of the same compound?
The TGI was over 100 µM.

And the GI50 (OVCAR-4 ovarian)?
The GI50 was 25.1 µM.

What about the TGI (OVCAR-4 ovarian) of the same compound?
The TGI was over 100 µM.

What about the GI50 (PC-3 prostate) of the same compound?
The GI50 was 44.3 µM.

And the TGI (PC-3 prostate)?
Its TGI is over 100 µM.

What about the GI50 (SK-MEL-5 melanoma) of the same compound?
Its GI50 is 4.35 µM.

What about the TGI (SK-MEL-5 melanoma) of the same compound?
Its TGI is 32.5 µM.

And the TGI (SNB-75 CNS)?
Its TGI is 22.9 µM.

And the GI50 (SW-620 colon)?
Its GI50 is 4.75 µM.

What about the TGI (SW-620 colon) of the same compound?
Its TGI is 26.7 µM.

What about the GI50 (T-47D breast) of the same compound?
The GI50 was 4.89 µM.

What about the TGI (T-47D breast) of the same compound?
Its TGI is 56.1 µM.

What about the GI50 (UO-31 renal) of the same compound?
The GI50 was 19.7 µM.

What about the TGI (UO-31 renal) of the same compound?
Its TGI is over 100 µM.

How did the GI50 (EKVX NSCLC) turn out when O=C(CN1CCN(c2ncccn2)CC1)Nc1ccc(Cl)cc1C(=O)c1ccccc1Cl was run?
Its GI50 is over 100 µM.

What about the TGI (EKVX NSCLC) of the same compound?
The TGI was over 100 µM.

And the GI50 (OVCAR-4 ovarian)?
Its GI50 is 43.9 µM.

What about the TGI (OVCAR-4 ovarian) of the same compound?
Its TGI is over 100 µM.

And the GI50 (PC-3 prostate)?
Its GI50 is 9.47 µM.

What about the TGI (PC-3 prostate) of the same compound?
The TGI was over 100 µM.

What about the GI50 (SK-MEL-5 melanoma) of the same compound?
Its GI50 is 52.4 µM.

And the TGI (SK-MEL-5 melanoma)?
Its TGI is over 100 µM.

And the GI50 (SNB-75 CNS)?
Its GI50 is 54.9 µM.

What about the TGI (SNB-75 CNS) of the same compound?
Its TGI is over 100 µM.

What about the GI50 (SW-620 colon) of the same compound?
The GI50 was over 100 µM.

What about the TGI (SW-620 colon) of the same compound?
Its TGI is over 100 µM.

And the GI50 (T-47D breast)?
The GI50 was 30.8 µM.

What about the TGI (T-47D breast) of the same compound?
Its TGI is over 100 µM.

And the GI50 (UO-31 renal)?
The GI50 was over 100 µM.

What about the TGI (UO-31 renal) of the same compound?
Its TGI is over 100 µM.

With CC(=O)O/C=C(/C=C/OC(C)=O)C(C/C=C(\C)C#CC=C(C)C)OC(C)=O (centres undefined) as the compound, how does the TGI (DLD-1 colon) read?
The TGI was over 100 µM.

And the TGI (DMS 114 small cell lung)?
The TGI was 38.5 µM.

What about the TGI (EKVX NSCLC) of the same compound?
The TGI was over 100 µM.

What about the TGI (OVCAR-4 ovarian) of the same compound?
Its TGI is over 100 µM.

And the TGI (SK-MEL-5 melanoma)?
Its TGI is over 100 µM.

What about the TGI (SW-620 colon) of the same compound?
Its TGI is over 100 µM.

And the TGI (UO-31 renal)?
Its TGI is over 100 µM.

For COc1ccc2c(c1)[nH]c(=O)c1c3cc(C)c(C)cc3cn21, which GI50 (EKVX NSCLC) is on record?
The GI50 was 0.0563 µM.

And the TGI (EKVX NSCLC)?
The TGI was 4.67 µM.

What about the GI50 (OVCAR-4 ovarian) of the same compound?
Its GI50 is 0.032 µM.

And the TGI (OVCAR-4 ovarian)?
Its TGI is 3.95 µM.

What about the GI50 (PC-3 prostate) of the same compound?
The GI50 was under 0.01 µM.

What about the TGI (PC-3 prostate) of the same compound?
Its TGI is 1.58 µM.

And the GI50 (SK-MEL-5 melanoma)?
Its GI50 is under 0.0158 µM.

What about the TGI (SK-MEL-5 melanoma) of the same compound?
The TGI was 0.0763 µM.

And the GI50 (SNB-75 CNS)?
Its GI50 is under 0.01 µM.

What about the TGI (SNB-75 CNS) of the same compound?
Its TGI is 4.37 µM.

And the GI50 (SW-620 colon)?
The GI50 was under 0.01 µM.

And the TGI (SW-620 colon)?
Its TGI is 1.47 µM.

What about the GI50 (T-47D breast) of the same compound?
The GI50 was 1.17 µM.

And the TGI (T-47D breast)?
The TGI was 2.9 µM.

What about the GI50 (UO-31 renal) of the same compound?
Its GI50 is under 0.0119 µM.

What about the TGI (UO-31 renal) of the same compound?
The TGI was 1.72 µM.
